Assay results as given in patent US20070280957A1, “Change of the Load State of Mhc Molecules” (priority 2004, published 2007).
Blank lines part the entries; values can stand above or below the molecule they belong to.

How the values were obtained:
[1] = target: T1, soluble HLA-DR1 (DRA1*0101, DRB1*0101) (Homo sapiens, UniProt P01903+P01911, A100R/D57E/F55L/F60I/F76Y/I96L/L162R/M171V/P40L/Q125E/R42F/V115G/Y59C); assay: Loading of empty soluble HLA-DR1 with biotinylated HA306-318 peptide, sandwich ELISA; type: biochemical
T1 construct: shortened α- and […]-chains without the cytoplasmatic and transmembrane portion of the MHC molecule; made in house; host or cells: S2 insect cells
Method: In order to monitor catalysis of the loading of HLA-DR molecules by compounds of formulae I, IA, II, III and IV1 to IV3, empty, soluble DR molecules were incubated with biotinylated, high-affinity peptide, and these were then detected in a sandwich ELISA for the MHC complexes.
All the batches were then adjusted to a final volume of 10 μl with 2% BSA-PO4^3− buffer (in the case of HLA-DR1 only with PO4^3− buffer). The reaction was started by incubation at 37° C. in a thermocycler. After 40 minutes, the incubation was terminated and the loading reaction was stopped by storage on ice and addition of 50 μl of ice-cold 1% BSA-PBS.
The detection of bound peptide was carried out by means of a sandwich ELISA. […] Between these steps, the plate was washed twice with PBS-0.05% Tween with the aid of a PW plate-washing device (Tecan Industries) and, before filling with fresh solution, all remaining liquid residues were removed by tapping on Scott®Natura paper towels (Hakle-Kimberly Deutschland GmbH). After blocking of non-specific binding sites, the plate was washed three times and filled with 50 μl/well of 1% BSA-PBS. 2×25 μl per reaction batch were transferred to the plate as double values and were carefully mixed thereon (total volume per well: 75 μl). From each filled series, a further 25 μl/well were then again titrated on the plate in a series of two-stage dilutions (final volume per well: 50 μl). The plates so filled were then stored for 2 hours at 4° C. under stationary conditions. Each plate was then washed six times as described above and filled with 80 μl/well of Eu^3+-streptavidin staining solution (europium-streptavidin stock solution diluted 1:10,000 with 1% BSA-PBS) and incubated for 30 minutes at room temperature (RT). After washing for a further eight times, 100 μl/well of fluorescence-activated solution (enhancer) were then added and the signal was measured by means of a Victor^2-multilabelcounter (Wallac Oy) at an excitation wavelength of 340 nm and an emission wavelength of 615 nm in time-resolving mode.
The following experiment was therefore carried out. One catalyst in a fixed concentration of 0.05 mM was introduced into each of a number of batches for loading HLA-DR1 with HA-biot. The same concentration of a second catalyst was then added to each batch. As controls, 1×1% DMSO was added and, as negative control, a reaction mixture was prepared with 2×1% DMSO. The reaction mixtures were then incubated for 40 minutes as already described and the load was measured in a sandwich ELISA.
The resulting load was then determined in an ELISA using biotinylated peptide (see FIG. 1).
The amount of peptide/MHC complexes formed within this time was then determined by means of an ELISA assay (capture antibody: anti-HLA-DR; detection: fluorescent-labelled streptavidin). The activities of the individual compounds were grouped on the basis of the dose/activity curves obtained thereby.

HLA-DR1 (DRB1*0101) = target: T2, HLA-DR1 (DRB1*0101) (Homo sapiens, UniProt P01903+P01911, A100R/D57E/F55L/F60I/F76Y/I96L/L162R/M171V/P40L/Q125E/R42F/V115G/Y59C); assay: HLA-DR1-restricted T-cell response after catalysed loading of 721.221 cells (EvHA/X5, hCII19.3 T-cells); type: cell-based; settings: for catalytic activity on HLA-DR1, dose-activity curves of T-cell stimulation: HA306-318 on 721.221 cells, EvHA/X5 T-cells
T2 construct: HLA-DR-expressing 721.221 cells; endogenous in cells; host or cells: 721.221 cells
Text: In the present comparison test, the enhancement of the T-cell response by catalysis of the loading of HLA-expressing cells was investigated. […] Either HA306-318 (see also FIG. 3, left-hand panel) or CO260-273 (see also FIG. 3, right-hand panel) was used as peptide antigen. After the loading, the cells were washed and used to stimulate EvHA/X5 and hCII19.3 cells, respectively.
In order to investigate the catalysis of a HLA-DR1 (DRB1*0101)-restricted T-cell response by various catalytically active adamantyl compounds, dose-activity curves of the catalysis of a HLA-DR1 (DRB1*0101)-restricted T-cell response were prepared. The experiment was carried out analogously to Comparison Experiment 3.3, the peptide antigen HA306-318 being loaded onto 721.221 cells in order thereby to stimulate EvHA/X5 T-cells. […] Because the position of the dose-activity curves is evidently also determined by the side chain, a modulating activity can be attributed thereto.

[2] = target: T3, HLA-DR4 (DRB1*0401) on L243.6 cells (Homo sapiens, UniProt P01903+P01911, A100K/A169T/F76Y/I96L/K127E/L162R/M171V/N62H/P40V/Q125Y/R42H/S133A/S149N/S66Y/V115G/V209L/W38E); assay: Loading of HLA-DR4 on the cell surface of fibroblast cells with biotinylated peptide, flow cytometry; type: cell-based; settings: 4 hours, 37° C., active at markedly less than a tenth of the pCP concentration
T3 construct: expressed in transfected cells; host or cells: L243.6 fibroblast cells
Method: (§1) The catalytic properties of found substances on the loading of MHC class II molecules located on cells was determined in cell loading experiments. To this end, from 50,000 to 100,000 cells in 50 μl of DMEM were mixed with 50 μl of 24 μM HA-biot. dissolved in DMEM and 50 μl of catalyst solution (different concentrations dissolved in DMEM with a maximum DMSO content of 3%) and incubated for 4 hours at 37° C. and 10% CO2. As controls, only 50 μl of peptide solution and 50 μl of DMEM were added to cells in several batches. At the end of the incubation time, the cells were centrifuged off for 5 minutes at 1300 rpm, and supernatant medium was removed. […] After removal of the supernatant, the cell pellets were again detached and taken up in 50 μl/well of streptavidin-phycoerythrin solution (SA-PE stock solution (1 mg/ml) diluted 1:200 with 2% FCS-PBS). Staining was carried out for 30 minutes at 4° C. with the exclusion of light, in order to avoid excessive decomposition of the fluorescent dyes. […] The cells were then analysed using a continuous-flow cytometer. […]

[3] = target: T4, HLA-DR1 (DRB1*0101) on L57.23 cells (Homo sapiens, UniProt P01903+P01911, A100R/D57E/F55L/F60I/F76Y/I96L/L162R/M171V/P40L/Q125E/R42F/V115G/Y59C); assay: Loading of HLA-DR1 on the cell surface of fibroblast cells with biotinylated peptide, flow cytometry; type: cell-based; settings: 4 hours, 37° C., active at markedly less than a tenth of the pCP concentration
T4 construct: expressed in transfected cells; host or cells: L57.23 fibroblast cells
Method: as §1

[4] = target: T5, empty, soluble HLA-DR1 complexes (Homo sapiens, UniProt P01903+P01911, A100R/D57E/F55L/F60I/F76Y/I96L/L162R/M171V/P40L/Q125E/R42F/V115G/Y59C); assay: High-throughput HLA-DR1 loading test of the substance library and validation of hits; type: biochemical; settings: final concentration of 0.4 mM
T5 construct: shortened α- and […]-chains without the cytoplasmatic and transmembrane portion of the MHC molecule; made in house; host or cells: S2 insect cells
Method: The compounds of formulae I, IA, II, III and IV1 to IV3 to be tested were supplied in 384-well plates in the form of a 160 mM starting library, dissolved in DMSO, from which an aliquot library had to be prepared. By manually removing 2 μl/well and diluting with 38 μl/well of DMSO, a 8 mM stock library was prepared, which was used for all further tests. In order to analyse the compounds of formulae I, IA, II, III and IV1 to IV3 that were present for their effect on MHC class II molecules, a high-throughput method based on a HLA-DR1 loading test was used. To this end, two 384-well Nunc-Maxisorp plates (ELISA plates) per library plate were coated overnight at 4° C. with 60 μl/well of monoclonal anti-HLA-DR antibody (L243 stock solution (1 mg/ml) diluted 1:500 in 100 mM NaHCO3). The plates were then washed three times by immersion in PBS-0.05% Tween solution and removal of air bubbles by tapping the plate against the wall of the washing vessel. Remaining washing solution was removed by beating the plates on paper towels, and 80 μl/well of 2% BSA-PBS were introduced. Non-specific binding was to be prevented by incubation at 37° C. for at least one hour. […] Excess staining solution was then removed by washing eight times with PBS-0.05% Tween, and 80 μl/well of fluorescence-activated solution (enhancer) were added manually by means of a pipette. […]

[5] = target: T6, soluble HLA-DR1 (DRB1*0101) (Homo sapiens, UniProt P01903+P01911, A100R/D57E/F55L/F60I/F76Y/I96L/L162R/M171V/P40L/Q125E/R42F/V115G/Y59C); assay: MHC loading assay for identifying immunotoxic compounds (4 hours, ELISA); type: biochemical; settings: biotinylated HA306-318
T6 construct: shortened α- and […]-chains without the cytoplasmatic and transmembrane portion of the MHC molecule; made in house; host or cells: S2 insect cells

MHC class II = settings: prior-art small molecules with H-donor properties; cited from earlier work

Molecule: Oc1ccccc1-c1ccccc1 [2-HBP]
- relative increase in the load, amount doubled ([1]; 0.05 mM + same concentration of the same catalyst): increases
- relative increase in the load ([1]; 0.05 mM catalyst + 1% DMSO, 40 minutes): about 10%

Molecule: COc1ccc2c(c1)OCC2=NO [#3651, 6-methoxybenzofuran-3(2H)-one-oxime]
- catalytic activity on HLA-DR1, dose-activity curves of T-cell stimulation (HLA-DR1 (DRB1*0101)): weaker but still exhibits higher activity than pCP

Molecule: CC(C)(O)C1CCC2(C)C(C1)C2(Cl)Cl (stereo not drawn) [#4230, 2-(7,7-dichloro-6-methyl-bicyclo[4.1.0]heptan-3-yl)-propan-2-ol]
- catalytic activity on HLA-DR1, dose-activity curves of T-cell stimulation (HLA-DR1 (DRB1*0101)): corresponds approximately to that of adamantylethanol

- loading of cells with HA306-318, dose-activity curves compared with pCP [2]: substantially more active than pCP
- loading of cells with HA306-318, dose-activity curves compared with pCP [3]: substantially more active than pCP
- immune response of HLA-DR1-restricted T-cells (HLA-DR1 (DRB1*0101); HA306-318 (EvHA/X5) or CO260-273 (hCII19.3) loaded onto 721.221 cells): markedly enhanced
Molecule: NNC(=O)c1cc(C23CC4CC(CC(C4)C2)C3)n[nH]1 [AdCaPy, 3-(1-adamantyl)-5-carbohydrazide pyrazole]

Molecule: Oc1cc(Cl)c(Cl)cc1O [DCC, 1,2-dichloro-4,5-dihydroxybenzene, reference compound]
- catalytic activity of phenol/aniline compounds, comparison of dose-activity curves ([1]; accelerated loading of soluble HLA-DR1 with HA306-318, compared with pCP): slightly increased activity
- load signal (threshold value of library analysis) [4]: 15,000 counted events

Molecule: OCC(O)CNc1ccccc1 (stereo not drawn) [III 36, 3-N-phenylaminopropanediol]
- acceleration of the loading of MHC molecules with peptide ligands [5]: able to accelerate the loading of MHC molecules with peptide ligands
- activity compared with pCP [5]: markedly lower than that of pCP

Molecule: CCCO [n-propanol]
- concentration required for use (MHC class II): over 200 mM

Molecule: Oc1ccccc1 [phenol]
- concentration required for use (MHC class II): 30 mM

- catalytic activity in the ELISA [1]: similarly good results as AdaEtOH
Molecule: dichlorophenylhydroxyiminoacetamide [DPHIA]
- toxicity (L57.23 cells): even lower toxic effects than AdaEtOH or 4-HBP
